The values that follow come from the OPERA property sets (Mansouri et al. 2018).

Details in one series: not given
As to `CCC=C(C)CCC`, the boiling point amounted to 121 °C.

`CCN1C(=O)c2ccccc2C1Nc1ccc(OCCN2CCCCC2)cc1` (stereo unspecified) showed a melting point of 106 °C. `FC(F)(F)c1cccc(Br)c1`: the boiling point is 152 °C and the melting point came out at 1 °C.

In turn, `OCCc1ccccc1` displayed a boiling point of 218 °C, a log10 Henry constant (atm·m³/mol) of -6.59, a log10 Koc (L/kg) of 1.5 and a log10 vapour pressure (mmHg) of -1.06. For the same molecule, the melting point was -27 °C and the ready biodegradability result is recorded as “readily biodegradable”. `Cc1cc2c(cc1Nc1ccccc1)C1(OC(=O)c3ccccc31)c1ccc(N(C)C3CCCCC3)cc1O2` (stereo unspecified): the ready biodegradability result was “not readily biodegradable”. Turning to `O=C(OC(Cl)(Cl)Cl)C(Cl)(Cl)Cl`, the boiling point stood at 192 °C and the melting point is 34 °C. The molecule `C[C@]12CC[C@@H]3c4ccc(OC5CCCC5)cc4CC[C@H]3[C@@H]1C[C@@H](O)[C@@H]2O` registered a melting point of 99 °C.

Consider `C=CCN`, for which the boiling point stood at 53.3 °C, the log10 vapour pressure (mmHg) was determined as 2.38 and the melting point was -88.2 °C. `N#Cc1cccc(N)c1` displayed a boiling point of 289 °C and a melting point of 54.3 °C. With `CC(C)OC(=O)c1ccco1`, the boiling point was found to be 198 °C. Consider `CCCC(O)(CC)CC`, for which the boiling point worked out at 160 °C.

Molecule `Clc1ccc(Oc2ccccc2Cl)cc1Cl` gave a log10 vapour pressure (mmHg) of -3.85. Turning to `CCO[Si](C)(OCC)OCC`, the boiling point was 142 °C. `CCCC[Si]1(C)O[Si](C)(CCCC)O[Si](C)(CCCC)O[Si](C)(CCCC)O1` (stereo unspecified) gave a boiling point of 291 °C.

Molecule `CCCCSC` had a boiling point of 124 °C, a log10 vapour pressure (mmHg) of 1.19 and a melting point of -97.8 °C. Take `NCC(CC(=O)O)c1ccc(Cl)cc1` (stereo unspecified): the melting point is 207 °C.

The molecule `Nc1c(Cl)cc(C(=O)O)cc1Cl` had a melting point of 292 °C.

Consider `C[Si](C)(C)N=C=N[Si](C)(C)C`, for which the boiling point came to 164 °C and the melting point is -23 °C. The molecule `FC(F)(F)C(Cl)(Cl)C(F)(F)Cl` showed a boiling point of 72 °C and a melting point of -4.3 °C.

`CCCCCCC=NO` registered a boiling point of 195 °C and a melting point of 57.5 °C.

`Oc1ccc(OCc2ccccc2)cc1` registered a melting point of 122 °C.

With `C=CCNC`, the boiling point worked out at 65 °C.

`CN(C)c1cccc2c(S(=O)(=O)Cl)cccc12` gave a melting point of 70 °C.

In turn, `FC(F)(F)Cl` displayed a boiling point of -81.4 °C, a log10 Henry constant (atm·m³/mol) of 0.14, a log10 vapour pressure (mmHg) of 4.33 and a melting point of -181 °C. `COC(=O)C(Cl)(Cl)Cl` yielded a boiling point of 154 °C and a melting point of -17.5 °C.

The molecule `C=C[C@@]1(C)CC[C@H]2C(=CC[C@@H]3[C@]2(C)CCC[C@@]3(C)C(=O)O)C1` returned a melting point of 160 °C.

Turning to `C[C@@H](N)c1ccccc1`, the ready biodegradability result was “not readily biodegradable”. Regarding `CCCCCCCCBr`, the boiling point is 200 °C, the log10 vapour pressure (mmHg) was -0.418 and the melting point is -55 °C. In turn, `CSC(=O)c1c(C(F)F)nc(C(F)(F)F)c(C(=O)SC)c1CC(C)C` displayed a melting point of 65 °C. Regarding `CC#CC#CC`, the boiling point turned out to be 130 °C and the melting point was 67.8 °C.

With `CC(C)C[C@H](N)C(=O)O`, the melting point was 293 °C.

Regarding `CC(C)(Oc1ccc(Cl)cc1)C(=O)OCCOC(=O)c1cccnc1`, the melting point is 100 °C. The molecule `CN1C[C@@H]2C[C@H](C1)c1cccc(=O)n1C2` returned a melting point of 137 °C. In the case of `Oc1ccc(Cl)cc1Cc1cc(Cl)ccc1O`, the log10 vapour pressure (mmHg) is -10, the melting point came out at 178 °C and the ready biodegradability result was “not readily biodegradable”. Consider `CC(C)(CO)CO`, for which the boiling point is 208 °C, the melting point was 130 °C and the ready biodegradability entry is given as “not readily biodegradable”. For the molecule `C=COC(C)(C)C`, the boiling point turned out to be 75 °C and the melting point was -112 °C. `c1cnc2c(c1)ccc1cccnc12` displayed a melting point of 117 °C. For `O=C=O`, the boiling point was -78.5 °C, the log10 vapour pressure (mmHg) came to 4.68 and the melting point was -56.5 °C. Consider `CCCC(C(N)=O)n1nc2ccccc2n1` (stereo unspecified), for which the melting point is 126 °C.

With `O=CNC(Nc1ccc(Cl)c(Cl)c1)C(Cl)(Cl)Cl` (stereo unspecified), the melting point came to 135 °C.

The molecule `CC1CCCCCCCCCCCCC(=O)C1` (stereo unspecified) registered a boiling point of 329 °C.

In the case of `c1ccc2c(c1)-c1cccc3c1c-2cc1ccccc13`, the log10 Henry constant (atm·m³/mol) was -6.18, the log10 biodegradation half-life (days) was determined as 2.45, the log10 vapour pressure (mmHg) is -6.3 and the melting point came to 168 °C. With `CCCCc1ccccc1`, the boiling point worked out at 183 °C, the log10 Koc (L/kg) came out at 3.39, the log10 vapour pressure (mmHg) was determined as 0.027 and the melting point was -87.9 °C. In addition, the ready biodegradability result is reported as “not readily biodegradable”.

Turning to `C=Cc1ccc(Cl)cc1`, the boiling point is 192 °C, the log10 vapour pressure (mmHg) was -0.0885, the melting point was 15.9 °C and the ready biodegradability result is recorded as “not readily biodegradable”. `Clc1cccc(Br)c1Cl` showed a boiling point of 245 °C and a melting point of 60 °C.

As for `Brc1c(Br)c(Br)c(-c2c(Br)c(Br)c(Br)c(Br)c2Br)c(Br)c1Br`, the log10 vapour pressure (mmHg) was -9.4, the melting point stood at 375 °C and the ready biodegradability entry is reported as “not readily biodegradable”. In the case of `Cc1cc2ccccc2oc1=O`, the boiling point was determined as 292 °C and the melting point is 91 °C. In the case of `O=CNNC=O`, the log10 vapour pressure (mmHg) is -6.13 and the melting point amounted to 156 °C. The molecule `COc1cc(Cl)c(Cl)cc1Cl` gave a boiling point of 254 °C and a melting point of 77.5 °C. The molecule `CCCCCC(CO)CCC` (stereo unspecified) came in with a boiling point of 218 °C. The molecule `Clc1cccc(Oc2ccc(Cl)c(Cl)c2)c1` returned a log10 vapour pressure (mmHg) of -3.91.

With `CCCCCCCCCCCC(=O)Oc1ccccc1`, the melting point was found to be 24.5 °C. On to `CC1CC(C)NC(C)C1` (stereo unspecified), for which the boiling point was found to be 145 °C. The molecule `O=C(Nc1ccccc1)NC1CCCC1` gave a log10 Koc (L/kg) of 1.93. On to `OC[C@@H](O)[C@@H](O)[C@H](O)[C@@H](O)CO`, for which the ready biodegradability result is listed as “readily biodegradable”. In the case of `C[Si](C)(C)Oc1ccccc1`, the boiling point is 119 °C and the melting point was -55 °C. In turn, `C=C(C)CC(C)O` (stereo unspecified) returned a boiling point of 129 °C. The molecule `OC1c2ccccc2Oc2ccccc21` came in with a melting point of 128 °C. In the case of `Oc1ccc(C2(c3ccc(O)cc3)CCCCC2)cc1`, the ready biodegradability entry was “not readily biodegradable”.

Molecule `Cc1ccc(C(=O)c2ccccc2C(=O)O)cc1` returned a melting point of 146 °C. `CCCCC(=O)C(C)C` had a boiling point of 158 °C. As for `c1ccc(-c2cccc(-c3ccccc3)c2)cc1`, the boiling point was determined as 363 °C, the log10 vapour pressure (mmHg) was -4.76 and the melting point was 87 °C. In the case of `c1ccc2c(c1)nnn2C1CCCCC1`, the melting point stood at 104 °C. In the case of `OCC(F)(F)F`, the boiling point is 74 °C, the log10 Henry constant (atm·m³/mol) is -4.76, the log10 vapour pressure (mmHg) was 1.85 and the melting point is -43.5 °C. As to `O=C(/C=C/c1cccc([N+](=O)[O-])c1)c1ccccc1`, the melting point was found to be 146 °C. `CCSc1nnc(C(C)(C)C)c(=O)n1N`: the log10 vapour pressure (mmHg) was -5.12 and the melting point worked out at 95 °C. In turn, `CCCCNC` had a boiling point of 91 °C and a melting point of -75 °C. As for `Cc1ccc(NO)cc1`, the melting point was 96 °C. As for `CCN(CC)c1ccc(N)cc1`, the boiling point is 261 °C. For the molecule `C[C@H](CCC(=O)O)[C@H]1CC[C@H]2[C@@H]3[C@H](O)C[C@@H]4C[C@H](O)CC[C@]4(C)[C@H]3C[C@H](O)[C@]12C`, the melting point is 198 °C. `Cc1c(Cl)cc(Cl)c(O)c1Cl`: the boiling point amounted to 265 °C and the melting point stood at 46 °C. `NC(=S)c1c(Cl)cccc1Cl`: the log10 Koc (L/kg) is 2.26, the log10 vapour pressure (mmHg) is -6 and the melting point worked out at 152 °C. With `Cc1cc(C2CCCCC2)n(O)c(=O)c1`, the melting point came to 144 °C.

Still in this series, the particulars now being: fish.
As for `C=C(C)CCCCCCC`, the log10 biotransformation half-life (days) was -0.06.

For `C=C[C@@]1(C)CC[C@H]2C(=CC[C@@H]3[C@]2(C)CCC[C@@]3(C)C(=O)O)C1`, the log10 BCF was found to be 1.63. For the molecule `Oc1ccc(Cl)cc1Cc1cc(Cl)ccc1O`, the log10 BCF was 2.28 and the log10 biotransformation half-life (days) is -0.51. `CC(C)(CO)CO` displayed a log10 BCF of 0.67. On the same count and under the same terms, in the case of `Brc1c(Br)c(Br)c(-c2c(Br)c(Br)c(Br)c(Br)c2Br)c(Br)c1Br` it was 5.19; in that of `COc1cc(Cl)c(Cl)cc1Cl`, 2.81.

A word on the boiling point: it is the temperature of boiling at a given pressure. The term melting point denotes the temperature, or range, at which the solid turns liquid.
